Test results from patent EP4763837A1, “PHOTOCHROMIC COMPOUND, CURABLE COMPOSITION, OPTICAL ARTICLE, LENS, AND EYEGLASSES” (TOKUYAMA CORPORATION, priority 2023, dated 2025).
Several values for one entry are separate records, joined by “and”; a condition that tells them apart may be missing. Equal values may be shown once.

What was measured:
Type in all cases: physicochemical
[1] = Photochromic property of binder sheet (photochromic layer made by binder method); settings: for Residual ratio: A96/A0 x 100 after 96 hours accelerated degradation, xenon weather meter X25; for Color developing density at 23°C: absorbance difference after 240 seconds irradiation at the maximum absorption wavelength of the same line
Description: (§1) The resulting photochromic laminates were evaluated by the below-mentioned methods. • (1) Photochromic property • [1] Maximum absorption wavelength (λmax): This is the maximum absorption wavelength after color development determined by a spectrophotometer manufactured by Otsuka Electronics Co., Ltd. (instantaneous multichannel photo detector MCPD3000) and was used as an index of a color tone upon color development. • [2] Color developing density at 23°C (A23): This is a difference between an absorbance {ε(240)} after irradiation with light at 23°C for 240 seconds and an absorbance ε(0) when not irradiated with light at the maximum absorption wavelength and was used as an index of a color developing density. The higher this value is, the better a photochromic property is. • [3] Color fading half-life at 23°C [τ1/2 (sec).)]: This is a period of time taken by an absorbance at the maximum absorption wavelength of a sample to decrease to 1/2 of {ε(240)-ε(0)} when irradiation is stopped after irradiation with light at 23°C for 240 seconds, and was used as an index of a color fading rate. The shorter this period of time is, the faster the color fading rate is. • [4] Residual ratio (A96/A0 x 100): The resulting photochromic plastic lens was subjected to accelerated degradation for 96 hours using a xenon weather meter X25 manufactured by Suga Test Instruments Co., Ltd. Color developing densities were then evaluated before and after a test, and a color developing density before the test (A0) and a color developing density after the test (A96) were measured. A ratio (A96/A0) was determined as a residual ratio and was used as an index of color development durability. The higher the residual ratio is, the more durable the color development is.
A binder sheet was produced as follows. The binder sheet was made by laminating a first optical sheet, a first adhesive layer, a photochromic layer, a second adhesive layer, and a second optical sheet in this order. A polycarbonate sheet with a thickness of 400 µm was used as the first optical sheet and the second optical sheet.
A 2 L four-necked flask equipped with a stirring blade, a condense tube, a thermometer, and a nitrogen gas inlet tube was charged with 315 parts by mass of polycarbonate diol with a number average molecular weight of 1000, 100 parts by mass of isophorone diisocyanate, and 72 parts by mass of toluene and reacted under a nitrogen atmosphere at 100°C for 7 hours. Thus, a urethane prepolymer with a terminal isocyanate group was synthesized. After the reaction of the above-mentioned urethane prepolymer was completed, the resulting reaction liquid was cooled to about 0°C and dissolved in 205 parts by mass of tertiary-butyl alcohol and 382 parts by mass of diethyl ketone, and then a temperature of the resulting liquid was kept at 0°C. Next, a mixed solution of 21.3 parts by mass of bis-(4-aminocyclohexyl)methane serving as a chain extender and 20 parts by mass of diethyl ketone was added dropwise thereto within 30 minutes and reacted at 0°C for 1 hour. Then, 8.1 parts by mass of 1,2,2,6,6-pentamethyl-4-aminopiperidine was added dropwise thereto and reacted at 0°C for 1 hour to obtain a solution of a terminal non-reactive urethane urea resin in diethylketone.
One hundred parts by mass of the resulting solution of a terminal non-reactive urethane urea resin, 6.3 parts by mass of Example 1 (a photochromic compound represented by Formula (1-7), an isomer mixture of 4,4'-methylenebis(cyclohexylisocyanate) (polyisocyanate compound)), 0.4 parts by mass of ethylenebis(oxyethylene) bis[3-(5-tert-butyl-4-hydroxy-m-tolyl) propionate] serving as an antioxidant, and 0.06 parts by mass of L-7001 manufactured by DuPont Toray Specialty Materials K.K. serving as a surfactant were added and stirred and mixed at room temperature to obtain a composition for forming a photochromic layer. […]

[2] = Photochromic property of photochromic cured product made by kneading method; settings: for Residual ratio: A96/A0 x 100 after 96 hours accelerated degradation, xenon weather meter X25; for Color developing density at 23°C: absorbance difference after 240 seconds irradiation at the maximum absorption wavelength of the same line
Description: as §1
First, the photochromic compound obtained in Example 1, an additive, and a polymerizable compound were mixed to obtain a curable composition. The polymerizable compound was a combination of the following polymerizable monomers: • · 1,3-Bis(isocyanatomethyl)cyclohexane: 36.7 parts by mass • · Pentaerythritol tetrakis(3-mercaptopropionate): 39.4 parts by mass • · Polyoxyethylene polyoxypropylene lauryl ether (WONDERSURF 140 manufactured by AOKI OIL INDUSTRIAL Co., Ltd.): 17.4 parts by mass • · 1-Decanethiol: 2.8 parts by mass • · RX-1 prepared by the method described in Patent Document 14: 3.8 parts by mass
Note that, in the curable composition, the photochromic compound was added in an amount of 0.106 mmol taking a total amount of the polymerizable monomers as 100 g.
The following additives were used: • · Dimethyltin dichloride: 0.05 parts by mass • · Irganox 245: 0.1 parts by mass • · 2-Ethylhexyl […]: 0.6 parts by mass
After the thus-prepared curable composition was thoroughly defoamed, it was poured into a glass mold with a gap of 1 mm and polymerized by casting polymerization. […] After the polymerization, the resulting cured product was removed from the glass mold to obtain a photochromic cured product with a thickness of 1 mm. The resulting photochromic cured product was evaluated in the same manner as for Example 23.
Photochromic cured products were produced using the photochromic compounds shown in Table 4 in the same manner as in Example 50.

[3] = Photochromic property of photochromic laminate made by coating method; settings: for Residual ratio: laminate by coating method, A96/A0 x 100 after 96 hours accelerated degradation, xenon weather meter X25
Source text: First, the photochromic compound obtained in Example 1, a photoinitiator, and a polymerizable compound were mixed to obtain a curable composition.
The polymerizable compound was a combination of the following radical polymerizable monomers:
Polyethylene glycol dimethacrylate (average molecular weight: 736): 42 parts by mass • Polyethylene glycol dimethacrylate (average molecular weight: 536): 12 parts by mass • Trimethylolpropane methacrylate: 38 parts by mass γ-Methacryloyloxypropyltrimethoxysilane: 2 parts by mass Glycidyl methacrylate: 1 part by mass.
Note that, in the curable composition, the photochromic compound was added in an amount of 0.25 mmol taking a total amount of the radical polymerizable monomers as 100 g.
Phenylbis(2,4,6-trimethylbenzoyl)phosphine oxide (photoinitiator: Omnirad 819): 0.3 parts by mass Ethylene bis(oxyethylene) bis[3-(5-tert-butyl-4-hydroxy-m-tolyl) propionate] (stabilizer, Irganox 245): 1 part by mass Bis(1,2,2,6,6-pentamethyl-4-piperidyl)sebacate: 3 parts by mass Leveling agent (L-7001) manufactured by DuPont Toray Specialty Materials K.K.: 0.1 parts by mass.
Using this curable composition, a photochromic laminate was obtained by a lamination method including polymerization as follows.
First, a thiourethane plastic lens with a center thickness of 2 mm and a refractive index of 1.60 was prepared as an optical substrate. Note that, the thiourethane plastic lens had been alkaline-etched in a 10% sodium hydroxide aqueous solution at 50°C for 5 minutes in advance, and then thoroughly washed with distilled water.
A spin coater (1H-DX2, manufactured by MIKASA CO., LTD) was used to coat a surface of the above-mentioned plastic lens with a moisture-curing primer (product name: TR-SC-P, manufactured by Tokuyama Corporation) at a rotation speed of 70 rpm for 15 seconds, followed by 1000 rpm for 10 seconds. Then, about 2 g of the photochromic curable composition obtained above was spin-coated at a rotation speed of 60 rpm for 40 seconds, followed by 600 rpm for 10 to 20 seconds so as to achieve a photochromic coating layer with a thickness of 40 µm.
The lens of which surface had been coated with the photochromic curable composition (photochromic coating layer) was irradiated with light for 90 seconds in a nitrogen gas atmosphere using a metal halide lamp with an output of 200 mW/cm^2 to cure the coating. The resultant was then further heated at 110°C for 1 hour to produce a photochromic laminate with a photochromic layer.
Photochromic laminates were produced using the photochromic compounds obtained in Examples 2 to 20 in the same manner as in Example 21.
Photochromic laminates were obtained using photochromic compounds represented by Formulae (A) to (D) below in the same manner as in Example 21. [drawing 89] [drawing 90] [drawing 91] [drawing 92] [drawing 93]
as §1, with “Residual ratio (A96/A0 x 100): The resulting photochromic plastic lens was subjected to accelerated degradation for 96 hours using a xenon weather meter X25 manufactured by Suga Test Instruments Co., Ltd. Color developing densities were then evaluated before and after a test, and a color developing density before the test (A0) and a color developing density after the test (A96) were measured. A ratio (A96/A0) was determined as a residual ratio and was used as an index of color development durability. The higher the residual ratio is, the more durable the color development is.” left out

[4] = Solubility of photochromic compound in polymerizable compounds; design: key: 1: No haze is seen when checked under transmission of light, and the sample is completely dissolved.; 2: A very thin haze is seen to the extent that it can be seen under transmission of light.; 3: A thin haze that can be seen under transmission of light is seen.; 4: A haze can be seen even without transmission of light; settings: 35 µmol/g in radical polymerizable compound composition of Example 21, 65 to 70°C; for Dissolution for 15 min / Dissolution for 30 min / Dissolution for 45 min: stirring and ultrasonic irradiation; for Dissolution for 1 hour: head reads 60 min in Tables 8 to 14
Description: The photochromic compounds according to Examples and Comparative examples shown in Table 5 were evaluated for solubility in polymerizable compounds.
Specifically, a sample was prepared by adding each of the photochromic compounds to the composition, which consisted of a radical polymerizable compound, among the curable compositions used in Example 21.
Note that, this test was performed using "YOKAI-KUN USS-1" manufactured by NIHONSEIKI KAISHA LTD. under the following conditions: • Dissolution temperature: 65 to 70°C • Stirring condition: Stirring dial of 5. Ultrasonic irradiation condition: Irradiation interval of 3 sec.
Dissolution was checked every 15 minutes up to 1 hour later, the sample was visually checked by transmitting light through the sample, and a degree of dissolution was evaluated according to the following four evaluation criteria.
• 1: No haze is seen when checked under transmission of light, and the sample is completely dissolved. • 2: A very thin haze is seen to the extent that it can be seen under transmission of light. • 3: A thin haze that can be seen under transmission of light is seen. • 4: A haze can be seen even without transmission of light.
A shorter time required for the evaluation result to be 1 means higher solubility.

SMILES | Residual ratio [1] | Color developing density at 23°C [1] | Residual ratio [2] | Color developing density at 23°C [2] | Residual ratio [3] | Color fading half-life at 23°C [3] [min] | Dissolution for 15 min [4] | Dissolution for 30 min [4] | Dissolution for 45 min [4] | Dissolution for 1 hour [4]
CCCCC1(C)c2cc(-c3ccc(C)cc3)ccc2-c2c1c1c(c3cc(OC)c(OC)cc23)OC(c2ccc(OC)cc2)(c2ccc(OC)cc2)C=C1 (centres unmarked) [Formula (5-6)] | 80% and 81% | 1.33 - and 0.84 - | – | – | – | – | – | – | – | –
CCCCCCC1(CC)c2ccccc2-c2c1c1c(c3cc(OC)ccc23)OC(c2ccc(C)cc2)(c2ccc(N(C)c3ccccc3)cc2)C=C1 (centres unmarked) [Formula (7-4)] | – | – | 67% and 66% | 0.63 - and 1.13 - | 60% | – | – | – | – | –
CCCCCC1(CCC)c2cc(N(c3ccccc3)c3ccccc3)ccc2-c2c1c1c(c3cc(OC)ccc23)OC(c2ccc(OC)cc2)(c2ccc(OC)cc2)C=C1 (centres unmarked) [Formula (8-3)] | – | – | 72% and 71% | 1.07 - and 0.96 - | – | 1.67 | – | – | – | –
CCCCC1(CCC)c2cc(C)ccc2-c2c1c1c(c3cc(OC)c(-c4ccc(N5CCOCC5)cc4)cc23)OC(c2ccc(OC)cc2)(c2ccc(N3CCOCC3)cc2)C=C1 (centres unmarked) [Formula (10-1)] | – | – | 70% and 69% | 1.10 - and 1.07 - | – | 1.42 | 3 | 2 | 1 | 1
CCCCCCC1(CC)c2cc(-c3ccc(OC(C)C)cc3)ccc2-c2c1c1c(c3cc(OC)c(-c4ccc(OC(C)C)cc4)cc23)OC(c2ccc(OC)cc2)(c2ccc(OCCC)cc2)C=C1 (centres unmarked) [Formula (11-1)] | 92% and 91% | 1.21 - and 1.03 - | – | – | 69% 69% | – | – | – | – | –
CCCC1(CC)c2cc(C)ccc2-c2c1c1c(c3cc(C)c(-c4ccc(OC)cc4)cc23)OC(c2ccc(OC)cc2)(c2ccc(N(c3ccccc3)c3ccccc3)cc2)C=C1 (centres unmarked) [Formula (12-2)] | – | – | 66% and 65% | 0.64 - and 1.23 - | – | – | – | – | – | –
CCCCCC1(CC)c2cc(OC(F)(F)F)ccc2-c2c1c1c(c3cc(OC)ccc23)OC(c2ccc(OC)cc2)(c2ccc(OC)cc2)C=C1 (centres unmarked) [Formula (15-1)] | 90% and 91% | 0.61 - and 0.73 - | – | – | – | – | 3 | 2 | 1 | 1
CCCCC1(CC)c2cc(-c3ccc(C(C)(C)C)cc3)ccc2-c2c1c1c(c3cc(OC)c(N4CCCCC4)cc23)OC(c2ccc(OC)cc2)(c2ccc(OC)cc2)C=C1 (centres unmarked) [Formula (17-2)] | 68% and 70% | 1.68 - and 0.84 - | 58% and 59% | – | – | – | – | – | – | –
